The numbers were not newly measured in US20210213132A1, “FORMULATIONS OF SN-38 WITH POLY(AMINO ACID) BLOCK POLYMERS” (Tyndall Formulation Services, LLC, priority 2020, published 2021), which cites them from elsewhere.

Like-named read-outs stand apart in the source and are kept apart here.

Series [1] deals with metastatic colorectal cancer patients. As to conditions: patients treated with irinotecan.
Series [2] relates to carboxylesterases, specifically CES1 and CES2.
The target of the next series is T1, topoisomerase I (Homo sapiens, UniProt P11387).
T1 sequence (P11387 1-765): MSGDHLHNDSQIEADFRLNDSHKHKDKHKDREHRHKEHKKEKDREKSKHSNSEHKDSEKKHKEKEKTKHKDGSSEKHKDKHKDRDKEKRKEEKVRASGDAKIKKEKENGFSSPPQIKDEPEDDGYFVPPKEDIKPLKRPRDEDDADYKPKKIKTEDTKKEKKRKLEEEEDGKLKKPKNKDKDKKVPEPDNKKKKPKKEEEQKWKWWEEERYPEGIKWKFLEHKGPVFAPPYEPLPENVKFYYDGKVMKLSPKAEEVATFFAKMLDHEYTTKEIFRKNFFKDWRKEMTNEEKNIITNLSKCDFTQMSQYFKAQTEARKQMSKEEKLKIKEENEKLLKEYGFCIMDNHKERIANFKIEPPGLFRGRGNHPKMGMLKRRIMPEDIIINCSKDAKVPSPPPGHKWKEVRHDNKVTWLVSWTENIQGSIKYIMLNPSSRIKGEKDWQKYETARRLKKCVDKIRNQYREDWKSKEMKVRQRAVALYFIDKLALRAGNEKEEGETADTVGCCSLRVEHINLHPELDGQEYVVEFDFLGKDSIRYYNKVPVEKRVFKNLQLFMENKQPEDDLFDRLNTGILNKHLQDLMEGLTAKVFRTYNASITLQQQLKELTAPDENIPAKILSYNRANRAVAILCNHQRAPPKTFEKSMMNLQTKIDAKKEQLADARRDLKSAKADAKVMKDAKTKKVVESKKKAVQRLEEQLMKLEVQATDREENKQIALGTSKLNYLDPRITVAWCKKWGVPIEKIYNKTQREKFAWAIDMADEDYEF
The settings on record: SN-38 versus irinotecan.

For `CCc1c2c(nc3ccc(OC(=O)N4CCC(N5CCCCC5)CC4)cc13)-c1cc3c(c(=O)n1C2)COC(=O)[C@]3(O)CC` [Irinotecan], the “Percentage of patients experiencing asthenia” value is reported as 25% in series [1] (UGT1A1 *1/*1 genotype), 38% in series [1] (UGT1A1 *1/*28 genotype) and 70% in series [1] (UGT1A1 *28/*28 genotype). The entries for the “Percentage of patients experiencing diarrhea” value in series [1] (UGT1A1 *1/*1 genotype), in series [1] (UGT1A1 *1/*28 genotype) and in series [1] (UGT1A1 *28/*28 genotype) were 17%, 33% and 70%, respectively. For the same compound, the entries for the “Percentage of patients experiencing neutropenia” value in series [1] (UGT1A1 *1/*1 genotype), in series [1] (UGT1A1 *1/*28 genotype) and in series [1] (UGT1A1 *28/*28 genotype) were 15%, 27% and 40%, respectively. Besides, in series [2], the “Affinity of the carboxylesterases for irinotecan” value was “low”.

`CCc1c2c(nc3ccc(O)cc13)-c1cc3c(c(=O)n1C2)COC(=O)[C@]3(O)CC` [SN-38]: the “Solubility in aqueous media” value is “extremely insoluble”. Also, the “Potency relative to irinotecan” value at topoisomerase I is 100 to 1000 fold.
